Data from patent US11602533B2, “Crenolanib combination therapy” (Arog Pharmaceuticals, Inc., priority 2018, dated 2023).

Columns and labels:
[1] = test system: tumor interstitial pressure; details: rat model; cited from earlier work
tumors = details: treatment with imatinib; cited from earlier work
implanted tumors = details: mouse; cited from earlier work
renal cancer patients = details: monotherapy; cited from earlier work
[2] = Clinical tolerability of crenolanib, single agent and with chemotherapy; assay type: in vivo; details: single agent and combined with chemotherapy; most common adverse events gastrointestinal toxicities, elevated liver enzymes and bilirubin, edema/effusions
From the text: Unlike axitinib, VEGF/VEGFR antibodies are associated with minimal toxicity and the combination of these antibodies and chemotherapy is very well-tolerated. In particular, axinitinib monotherapy (in renal cancer patients) is associated with notable toxicities, including all-grade fatigue, anorexia, nausea, diarrhea and hand-foot syndrome in >25% of patients. Additionally, paclitaxel is less myelosuppressive than docetaxel. These improved toxicities support the combination of crenolanib and an alternative VEGFR inhibitor (including ramucirumab) in addition to and chemotherapy in patients with advanced cancers.

gastric cancer = details: monotherapy; cited from earlier work

Compound: Cc1ccc(NC(=O)c2ccc(CN3CCN(C)CC3)cc2)cc1Nc1nccc(-c2cccnc2)n1 [Imatinib]
- effect on capillary-to-interstitium transport of solutes [1]: increase the capillary-to-interstitium transport of solutes
- effect on interstitial hypertension [1]: decrease interstitial hypertension
- effect on anti-tumor effect of paclitaxel (tumors): increased anti-tumor effect of paclitaxel
- effect on paclitaxel uptake by the tumors (tumors): increased paclitaxel uptake by the tumors

Compound: Cc1cc(C)c(/C=C2\C(=O)Nc3ccccc32)[nH]1 [SU5416]
- effect on established tumor blood vessels (implanted tumors): failed to induce regression of established blood vessels
- effect on tumor growth (implanted tumors): prevented tumor growth

Compound: Cc1[nH]c(/C=C2\C(=O)Nc3ccccc32)c(C)c1CCC(=O)O [SU6668]
- effect on established tumor blood vessels (implanted tumors): regression of established tumor vessels
- effect on tumor growth (implanted tumors): suppression of tumor growth

Compound: CNC(=O)c1ccccc1Sc1ccc2c(/C=C/c3ccccn3)n[nH]c2c1 [axinitinib]
- patients with all-grade fatigue, anorexia, nausea, diarrhea and hand-foot syndrome (renal cancer patients): > 25%

Compound: CC1(COc2ccc3c(c2)ncn3-c2ccc3cccc(N4CCC(N)CC4)c3n2)COC1 [crenolanib, 4-Piperidinamine, 1-[2-[5-[(3-methyl-3-oxetanyl)methoxy]-1H-benzimidazol-1-yl]-8-quinolinyl]]
- tolerability [2]: generally well tolerated

Compound: ramucirumab: antibody against VEGF receptor 2 (VEGFR2)
- progression-free survival (PFS) improvement over placebo (gastric cancer): 0.8 months
- response rate (RR) (gastric cancer): 3%
